Counter-ions that a name gives are not always drawn. Like-named read-outs stand apart in the source and are kept apart here. Bounds are passed on as bounds.

The subject of one assay is Z138 cells. The experiment in a line: MTT cell proliferation assay, Z138. Format: cell-based. The following applies: Homo sapiens, Z-138, Z138 cells, read-out: MTT Assay IC50, Z138. Summed up: (§1)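 Absorbance at 490 nm of solubilized formazan, produced during roughly 4 h MTT incubation, gave percent inhibition relative to negative control. Compounds spanned eight concentrations between 1 nM and 30 μM on cells plated overnight at 5,000-10,000 per well.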

The test system of another assay is 3T3 cells. Description: MTT cell proliferation assay, 3T3. The following applies: Mus musculus, NIH3T3, 3T3 cells, read-out: MTT Assay IC50, 3T3. In kind it is cell-based, mouse. In short, it runs like this:
as §1
A general note: Formazan colour is commonly taken as a measure of viable cells.

Another assay relates to MS751 cells. The experiment in a line: MTT cell proliferation assay, MS751. In kind it is cell-based, human. To be noted: Homo sapiens, MS751, MS751 cells, read-out: MTT Assay IC50, MS751. Summed up: as §1
[1] abbreviates: approximately 64-72 hours incubation.
Where [2] appears, read: eight concentrations 1 nM to 30 μM, incubation approximately 64-72 hours.

For the molecule `CC(=O)c1ccc(-c2cc(Cl)c3c(c2)CC(CNC(=O)/C=C/c2cncc(S(=O)(=O)N(C)C)c2)O3)s1` (stereo not drawn) [Compound 210, (E)-N-((5-(5-acetylthiophen-2-yl)-7-chloro-2,3-dihydrobenzofuran-2-yl)methyl)-3-(5-(N,N-dimethylsulfamoyl)pyridin-3-yl)acrylamide], the IC50 (in general, the concentration that inhibits the measured activity by half) is > 30 µM in the assay with Z138 cells (setting [1]), > 30 µM in the assay with 3T3 cells (setting [1]) and 5 to 30 µM with MS751 cells (setting [1]).

`CC(=O)c1ccc(-c2cc(Cl)c3c(c2)CC(CNC(=O)/C=C/c2c(C)nn(-c4ccccc4)c2Cl)O3)s1` (stereo not drawn) [Compound 211, (E)-N-((5-(5-acetylthiophen-2-yl)-7-chloro-2,3-dihydrobenzofuran-2-yl)methyl)-3-(5-chloro-3-methyl-1-phenyl-1H-pyrazol-4-yl)acrylamide]: the IC50 with Z138 cells (setting [1]), in the assay on 3T3 cells (setting [1]) and in the assay on MS751 cells (setting [1]) was > 30 µM in each case.

As to `CC(=O)c1ccc(-c2cc(Cl)c3c(c2)CC(CNC(=O)/C=C/c2[nH]cnc2C)O3)s1` (stereo not drawn) [Compound 212, (E)-N-((5-(5-acetylthiophen-2-yl)-7-chloro-2,3-dihydrobenzofuran-2-yl)methyl)-3-(4-methyl-1H-imidazol-5-yl)acrylamide], the IC50 is 5 to 30 µM in the assay with Z138 cells (setting [1]), > 30 µM with 3T3 cells (setting [1]) and 5 to 30 µM with MS751 cells (setting [1]).

For the molecule `CC(=O)c1ccc(-c2cc(Cl)c3c(c2)CC(CNC(=O)/C=C/c2ccn(C)c2)O3)s1` (stereo not drawn) [Compound 213, (E)-N-((5-(5-acetylthiophen-2-yl)-7-chloro-2,3-dihydrobenzofuran-2-yl)methyl)-3-(1-methyl-1H-pyrrol-3-yl)acrylamide], the IC50 in the assay on Z138 cells (setting [1]), in the assay on 3T3 cells (setting [1]) and in the assay on MS751 cells (setting [1]) was > 30 µM throughout.

On to `CC(=O)c1ccc(-c2ccc(Cl)c3c2CC(CNC(=O)/C=C/c2ccc(N)nc2)O3)s1` (stereo not drawn) [Compound 218, hydrochloride], for which the IC50 is < 0.1 µM in the assay on Z138 cells (setting [1]), 5 to 30 µM with 3T3 cells (setting [1]) and < 0.1 µM in the assay with MS751 cells (setting [1]).

`CC(=O)c1ccc(-c2cc(Cl)c3c(c2)CC(CNC(=O)/C=C/Cc2cccnc2)O3)s1` (stereo not drawn) [Compound 222, (E)-N-((5-(5-acetylthiophen-2-yl)-7-chloro-2,3-dihydrobenzofuran-2-yl)methyl)-4-(pyridin-3-yl)but-2-enamide]: the IC50 in the assay on Z138 cells (setting [1]) fell in the range of 0.1 to 5 µM; in the assay on 3T3 cells (setting [1]) it was 5 to 30 µM; with MS751 cells (setting [1]) it was 0.1 to 5 µM.

`CC(=O)c1ccc(-c2cc(Cl)c3c(c2)CC(CNC(=O)/C=C/n2cncn2)O3)s1` (stereo not drawn) [Compound 229, (E)-N-((5-(5-acetylthiophen-2-yl)-7-chloro-2,3-dihydrobenzofuran-2-yl)methyl)-3-(1H-1,2,4-triazol-1-yl)acrylamide]: the IC50 in the assay on Z138 cells (setting [1]), with 3T3 cells (setting [1]) and with MS751 cells (setting [1]) was > 30 µM each time.

For the molecule `CN(C)C(=O)c1ccc(-c2cc(Cl)c3c(c2)CC(CNC(=O)/C=C/c2ccc(N)nc2)O3)cc1` (stereo not drawn) [Compound 233, (E)-4-(2-((3-(6-aminopyridin-3-yl)acrylamido)methyl)-7-chloro-2,3-dihydrobenzofuran-5-yl)-N,N-dimethylbenzamide], the IC50 with Z138 cells (setting [1]) was < 0.1 µM; in the assay on 3T3 cells (setting [1]) it was 5 to 30 µM; in the assay with MS751 cells (setting [1]), 0.1 to 5 µM.

For the molecule `Nc1ccc(/C=C/C(=O)NCC2Cc3cc(-c4ccc(C(=O)N5CCCCC5)cc4)cc(Cl)c3O2)cn1` (stereo not drawn) [Compound 234, (E)-3-(6-aminopyridin-3-yl)-N-((7-chloro-5-(4-(piperidine-1-carbonyl)phenyl)-2,3-dihydrobenzofuran-2-yl)methyl)acrylamide], the IC50 in the assay with Z138 cells (setting [1]) is < 0.1 µM; in the assay on 3T3 cells (setting [1]) it was 5 to 30 µM; with MS751 cells (setting [1]), < 0.1 µM.

For `Cc1noc(C)c1-c1cc(Cl)c2c(c1)CC(CNC(=O)/C=C/c1cccnn1)O2` (stereo not drawn) [Compound 235, (E)-N-((7-chloro-5-(3,5-dimethylisoxazol-4-yl)-2,3-dihydrobenzofuran-2-yl)methyl)-3-(pyridazin-3-yl)acrylamide], the figures for the IC50 in the assay on Z138 cells (setting [1]), in the assay with 3T3 cells (setting [1]) and in the assay on MS751 cells (setting [1]) were 0.1 to 5 µM, 5 to 30 µM and 0.1 to 5 µM, respectively.

On to `O=C(/C=C/c1cccnn1)NCC1Cc2cc(-c3ccc(C(=O)N4CCOCC4)cc3)cc(Cl)c2O1` (stereo not drawn) [Compound 236, (E)-N-((7-chloro-5-(4-(morpholine-4-carbonyl)phenyl)-2,3-dihydrobenzofuran-2-yl)methyl)-3-(pyridazin-3-yl)acrylamide], for which the IC50 in the assay with Z138 cells (setting [1]), with 3T3 cells (setting [1]) and in the assay with MS751 cells (setting [1]) was 0.1 to 5 µM in each case.

Regarding `CN1CCN(C(=O)c2ccc(-c3cc(Cl)c4c(c3)CC(CNC(=O)/C=C/c3ccc(N)nc3)O4)cc2)CC1` (stereo not drawn) [Compound 237, (E)-3-(6-aminopyridin-3-yl)-N-((7-chloro-5-(4-(4-methylpiperazine-1-carbonyl)phenyl)-2,3-dihydrobenzofuran-2-yl)methyl)acrylamide], the IC50 with Z138 cells (setting [1]) was < 0.1 µM; with 3T3 cells (setting [1]) it was 0.1 to 5 µM; in the assay with MS751 cells (setting [1]) it was < 0.1 µM.

As to `Cc1cc(-c2cc(Cl)c3c(c2)CC(CNC(=O)/C=C/c2ccc(N)nc2)O3)ccc1C(=O)N1CCOCC1` (stereo not drawn) [Compound 238, (E)-3-(6-aminopyridin-3-yl)-N-((7-chloro-5-(3-methyl-4-(morpholine-4-carbonyl)phenyl)-2,3-dihydrobenzofuran-2-yl)methyl)acrylamide], the IC50 in the assay on Z138 cells (setting [1]) was < 0.1 µM; in the assay on 3T3 cells (setting [1]), 0.1 to 5 µM; with MS751 cells (setting [1]), < 0.1 µM.

Turning to `Nc1ccc(/C=C/C(=O)NCC2Cc3cc(-c4cccc(C(=O)N5CCOCC5)c4)cc(Cl)c3O2)cn1` (stereo not drawn) [Compound 239, (E)-3-(6-aminopyridin-3-yl)-N-((7-chloro-5-(3-(morpholine-4-carbonyl)phenyl)-2,3-dihydrobenzofuran-2-yl)methyl)acrylamide], the IC50 was < 0.1 µM with Z138 cells (setting [1]), 0.1 to 5 µM with 3T3 cells (setting [1]) and < 0.1 µM in the assay on MS751 cells (setting [1]).

As for `C=C(Cc1cccnc1)C(=O)NCC1Cc2cc(-c3ccc(C(C)=O)s3)cc(Cl)c2O1` (stereo not drawn) [Compound 240, N-((5-(5-acetylthiophen-2-yl)-7-chloro-2,3-dihydrobenzofuran-2-yl)methyl)-2-(pyridin-3-ylmethyl)acrylamide], the figures for the IC50 with Z138 cells (setting [1]), in the assay on 3T3 cells (setting [1]) and with MS751 cells (setting [1]) were 5 to 30 µM, > 30 µM and 5 to 30 µM, respectively.

As for `Nc1ccc(/C=C/C(=O)NCC2Cc3cc(-c4ccc(C(=O)N5CCOCC5)nc4)cc(Cl)c3O2)cn1` (stereo not drawn) [Compound 248, (E)-3-(6-aminopyridin-3-yl)-N-((7-chloro-5-(6-(morpholine-4-carbonyl)pyridin-3-yl)-2,3-dihydrobenzofuran-2-yl)methyl)acrylamide], the IC50 in the assay on Z138 cells (setting [1]) is < 0.1 µM; in the assay on 3T3 cells (setting [1]), > 30 µM; in the assay on MS751 cells (setting [1]), 0.1 to 5 µM.

As for `Nc1ccc(/C=C/C(=O)NCC2Cc3c(-c4ccc(C(=O)N5CCOCC5)cc4)ccc(Cl)c3O2)cn1` (stereo not drawn) [Compound 249, (E)-3-(6-aminopyridin-3-yl)-N-((7-chloro-4-(4-(morpholine-4-carbonyl)phenyl)-2,3-dihydrobenzofuran-2-yl)methyl)acrylamide], the IC50 in the assay with Z138 cells (setting [1]) is < 0.1 µM; with 3T3 cells (setting [1]), 0.1 to 5 µM; in the assay with MS751 cells (setting [1]) it was < 0.1 µM.

With `CC(=O)c1ccc(-c2cc(Cl)c3c(c2)CC(CNC(=O)C#Cc2cccnc2)O3)s1` (stereo not drawn) [Compound 251, N-((5-(5-acetylthiophen-2-yl)-7-chloro-2,3-dihydrobenzofuran-2-yl)methyl)-3-(pyridin-3-yl)propiolamide], the values for the IC50 in the assay on Z138 cells (setting [2]), with 3T3 cells (setting [2]) and in the assay with MS751 cells (setting [2]) were 0.1 to 5 µM, 5 to 30 µM and 0.1 to 5 µM, respectively.

For the molecule `CC(=O)c1ccc(-c2cc(Cl)c3c(c2)CC(CNC(=O)/C=C/c2cncnc2)O3)s1` (stereo not drawn) [Compound 254, (E)-N-((5-(5-acetylthiophen-2-yl)-7-chloro-2,3-dihydrobenzofuran-2-yl)methyl)-3-(pyrimidin-5-yl)acrylamide], the IC50 in the assay on Z138 cells (setting [2]), in the assay on 3T3 cells (setting [2]) and in the assay on MS751 cells (setting [2]) was > 30 µM throughout.

Consider `CC(=O)c1ccc(-c2cc(Cl)c3c(c2)CC(CNC(=O)/C=C/c2cnccn2)O3)s1` (stereo not drawn) [Compound 258, (E)-N-((5-(5-acetylthiophen-2-yl)-7-chloro-2,3-dihydrobenzofuran-2-yl)methyl)-3-(pyrazin-2-yl)acrylamide], for which the IC50 with Z138 cells (setting [2]), in the assay with 3T3 cells (setting [2]) and in the assay on MS751 cells (setting [2]) was > 30 µM each time.

Consider `CC(=O)c1ccc(-c2cc(Cl)c3c(c2)CC(CNC(=O)/C(C)=C/c2cccnc2)O3)s1` (stereo not drawn) [Compound 262, (E)-N-((5-(5-acetylthiophen-2-yl)-7-chloro-2,3-dihydrobenzofuran-2-yl)methyl)-2-methyl-3-(pyridin-3-yl) acrylamide], for which the IC50 in the assay on Z138 cells (setting [2]) was 5 to 30 µM; with 3T3 cells (setting [2]), > 30 µM; in the assay on MS751 cells (setting [2]) it was 5 to 30 µM.

Turning to `CC(=O)c1ccc(-c2cc(Cl)c3c(c2)CC(CNC(=O)/C=C/c2cscn2)O3)s1` (stereo not drawn) [Compound 272, (E)-N-((5-(5-Acetylthiophen-2-yl)-7-chloro-2,3-dihydrobenzofuran-2-yl)methyl)-3-(thiazol-4-yl)acrylamide], the IC50 in the assay on Z138 cells (setting [2]) was > 30 µM; with 3T3 cells (setting [2]), 5 to 30 µM; in the assay on MS751 cells (setting [2]), > 30 µM.

With `CC(=O)c1ccc(-c2cc(Cl)c3c(c2)CC(CNC(=O)/C=C/c2ccnnc2)O3)s1` (stereo not drawn) [Compound 273, (E)-N-((5-(5-acetylthiophen-2-yl)-7-chloro-2,3-dihydrobenzofuran-2-yl)methyl)-3-(pyridazin-4-yl)acrylamide], the IC50 in the assay on Z138 cells (setting [2]) was 5 to 30 µM; in the assay with 3T3 cells (setting [2]) it was > 30 µM; in the assay on MS751 cells (setting [2]) it was > 30 µM.
